Experimental data published in ChEMBL document CHEMBL1909046, “DrugMatrix in vitro pharmacology data”.

Columns and labels:
[1] = target: Cytochrome P450 2E1 (Homo sapiens, UniProt P05181); conditions: bti-tn-5b1-4; further: in other assays of this panel Not Active means under 50% inhibition at 10 µM
[2] = target: Cytochrome P450 2C19 (Homo sapiens, UniProt P33261); conditions: bti-tn-5b1-4; further: in other assays of this panel Not Active means under 50% inhibition at 10 µM
[3] = target: Aldo-keto reductase family 1 member B1 (Rattus norvegicus, UniProt P07943); format: tissue-based, Lens of camera-type eye;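 further: inhibition of aldose reductase enzyme activity, measured with DL-glyceraldehyde as the substrate; in other assays of this panel Not Active means under 50% inhibition at 10 µM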
[4] = target: T1, Muscarinic acetylcholine receptor M2 (Homo sapiens, UniProt P08172); format: cell membranes, CHO-K1, Membrane; conditions: cho-k1; further: in other assays of this panel Not Active means under 50% inhibition at 10 µM
T1 sequence (P08172 whole entry): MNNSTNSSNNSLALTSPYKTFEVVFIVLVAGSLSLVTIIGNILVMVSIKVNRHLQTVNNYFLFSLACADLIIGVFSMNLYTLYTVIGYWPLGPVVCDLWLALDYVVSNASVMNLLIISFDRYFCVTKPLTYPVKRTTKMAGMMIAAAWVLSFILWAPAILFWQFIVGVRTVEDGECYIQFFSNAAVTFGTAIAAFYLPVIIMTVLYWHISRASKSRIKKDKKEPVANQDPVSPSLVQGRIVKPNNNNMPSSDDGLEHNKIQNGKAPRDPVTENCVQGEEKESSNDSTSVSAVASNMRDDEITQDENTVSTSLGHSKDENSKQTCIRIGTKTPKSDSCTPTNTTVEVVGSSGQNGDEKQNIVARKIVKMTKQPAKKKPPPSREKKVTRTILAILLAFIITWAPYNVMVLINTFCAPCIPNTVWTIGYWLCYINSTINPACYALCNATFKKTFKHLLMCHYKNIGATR

[5] = target: 5-hydroxytryptamine receptor 6 (Homo sapiens, UniProt P50406); format: cell membranes, HeLa, Membrane; further: in other assays of this panel Not Active means under 50% inhibition at 10 µM
[6] = target: Melanocortin receptor 4 (Homo sapiens, UniProt P32245); format: cell membranes, Membrane; conditions: hek293; further: in other assays of this panel Not Active means under 50% inhibition at 10 µM
[7] = target: Tyrosine-protein kinase Fyn (Homo sapiens, UniProt P06241); assay: biochemical; format: cell-based, Insect cells
[8] = target: T2, 5-hydroxytryptamine receptor 2C (Homo sapiens, UniProt P28335); assay: DRUGMATRIX: Serotonin (5-Hydroxytryptamine) 5-HT2C radioligand binding (ligand: [3H] Mesulergine); format: cell membranes, CHO-K1, Membrane; conditions: Not Active = under 50% inhibition at 10 µM; for Ki: read-out: Ki
T2 sequence (P28335 whole entry): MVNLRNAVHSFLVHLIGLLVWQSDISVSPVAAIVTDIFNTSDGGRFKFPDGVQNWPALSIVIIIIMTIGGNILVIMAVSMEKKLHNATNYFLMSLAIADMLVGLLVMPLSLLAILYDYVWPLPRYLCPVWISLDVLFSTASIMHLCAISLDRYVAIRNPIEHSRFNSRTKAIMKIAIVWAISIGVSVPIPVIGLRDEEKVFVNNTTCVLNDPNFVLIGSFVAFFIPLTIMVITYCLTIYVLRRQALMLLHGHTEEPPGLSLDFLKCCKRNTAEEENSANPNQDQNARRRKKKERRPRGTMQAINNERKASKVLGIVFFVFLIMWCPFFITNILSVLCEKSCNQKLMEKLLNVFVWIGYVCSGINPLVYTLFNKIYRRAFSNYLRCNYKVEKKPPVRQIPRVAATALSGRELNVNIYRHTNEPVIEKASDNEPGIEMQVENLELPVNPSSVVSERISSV

[9] = DRUGMATRIX: Calcium Channel Type L, Dihydropyridine radioligand binding (ligand: [3H] Nitrendipine); format: cell membranes, Rattus norvegicus, Wistar, Cerebral cortex, Membrane; conditions: Not Active = under 50% inhibition at 10 µM
[10] = target: T3, 3-hydroxy-3-methylglutaryl-coenzyme A reductase (Homo sapiens, UniProt P04035); parameters: species or system Escherichia coli
T3 sequence (P04035 whole entry): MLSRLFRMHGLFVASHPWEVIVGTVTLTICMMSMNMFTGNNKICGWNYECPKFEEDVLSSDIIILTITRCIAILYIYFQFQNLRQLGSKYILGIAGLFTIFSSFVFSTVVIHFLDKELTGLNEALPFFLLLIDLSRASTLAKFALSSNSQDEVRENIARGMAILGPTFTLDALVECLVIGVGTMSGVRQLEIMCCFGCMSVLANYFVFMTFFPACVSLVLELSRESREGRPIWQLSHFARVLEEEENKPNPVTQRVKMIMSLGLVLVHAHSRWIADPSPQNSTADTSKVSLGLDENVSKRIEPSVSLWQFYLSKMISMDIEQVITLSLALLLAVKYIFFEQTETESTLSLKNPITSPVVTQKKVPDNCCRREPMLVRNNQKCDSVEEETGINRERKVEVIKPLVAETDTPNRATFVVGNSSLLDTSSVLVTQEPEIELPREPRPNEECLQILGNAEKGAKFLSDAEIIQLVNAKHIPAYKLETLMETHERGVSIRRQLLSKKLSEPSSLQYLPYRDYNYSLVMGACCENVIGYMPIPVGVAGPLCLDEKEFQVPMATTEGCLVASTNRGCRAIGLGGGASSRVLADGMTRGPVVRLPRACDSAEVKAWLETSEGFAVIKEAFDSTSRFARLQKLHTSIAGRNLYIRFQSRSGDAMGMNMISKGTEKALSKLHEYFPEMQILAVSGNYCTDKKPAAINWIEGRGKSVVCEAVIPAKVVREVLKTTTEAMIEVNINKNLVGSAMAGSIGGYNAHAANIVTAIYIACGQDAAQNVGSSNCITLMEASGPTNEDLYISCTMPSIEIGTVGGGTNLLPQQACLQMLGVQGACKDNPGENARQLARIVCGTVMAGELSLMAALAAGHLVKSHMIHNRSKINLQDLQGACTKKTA

[11] = target: T4, Alpha-2A adrenergic receptor (Homo sapiens, UniProt P08913); format: cell membranes, Sf9, Membrane; conditions: for Ki: read-out: Ki
T4 sequence (P08913 whole entry): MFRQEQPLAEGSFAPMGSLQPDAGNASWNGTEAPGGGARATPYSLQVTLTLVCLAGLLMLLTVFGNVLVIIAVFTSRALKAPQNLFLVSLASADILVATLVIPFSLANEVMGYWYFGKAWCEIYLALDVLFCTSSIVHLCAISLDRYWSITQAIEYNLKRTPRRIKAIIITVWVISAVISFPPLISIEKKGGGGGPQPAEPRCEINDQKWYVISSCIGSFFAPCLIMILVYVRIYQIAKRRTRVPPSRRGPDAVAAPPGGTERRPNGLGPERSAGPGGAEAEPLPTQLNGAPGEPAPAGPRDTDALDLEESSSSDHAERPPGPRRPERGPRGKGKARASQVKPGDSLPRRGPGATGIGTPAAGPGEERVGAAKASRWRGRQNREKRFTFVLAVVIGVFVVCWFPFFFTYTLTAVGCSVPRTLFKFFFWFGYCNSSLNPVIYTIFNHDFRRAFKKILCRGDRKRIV

Cytochrome P450 2C19, sequence (P33261 whole entry): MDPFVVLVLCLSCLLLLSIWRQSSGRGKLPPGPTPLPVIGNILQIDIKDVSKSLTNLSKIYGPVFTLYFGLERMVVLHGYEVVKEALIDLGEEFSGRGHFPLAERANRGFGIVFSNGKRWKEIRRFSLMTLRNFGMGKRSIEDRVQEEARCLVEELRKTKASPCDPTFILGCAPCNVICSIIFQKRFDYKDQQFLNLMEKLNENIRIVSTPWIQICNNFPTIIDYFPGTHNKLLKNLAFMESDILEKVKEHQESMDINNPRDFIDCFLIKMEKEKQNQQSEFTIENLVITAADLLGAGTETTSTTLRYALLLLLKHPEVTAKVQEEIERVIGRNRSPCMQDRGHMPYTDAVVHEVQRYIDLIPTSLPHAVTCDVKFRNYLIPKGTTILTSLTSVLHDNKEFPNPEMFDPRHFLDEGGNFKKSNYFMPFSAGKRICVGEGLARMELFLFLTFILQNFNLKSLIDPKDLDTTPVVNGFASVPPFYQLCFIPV
5-hydroxytryptamine receptor 6, sequence (P50406 whole entry): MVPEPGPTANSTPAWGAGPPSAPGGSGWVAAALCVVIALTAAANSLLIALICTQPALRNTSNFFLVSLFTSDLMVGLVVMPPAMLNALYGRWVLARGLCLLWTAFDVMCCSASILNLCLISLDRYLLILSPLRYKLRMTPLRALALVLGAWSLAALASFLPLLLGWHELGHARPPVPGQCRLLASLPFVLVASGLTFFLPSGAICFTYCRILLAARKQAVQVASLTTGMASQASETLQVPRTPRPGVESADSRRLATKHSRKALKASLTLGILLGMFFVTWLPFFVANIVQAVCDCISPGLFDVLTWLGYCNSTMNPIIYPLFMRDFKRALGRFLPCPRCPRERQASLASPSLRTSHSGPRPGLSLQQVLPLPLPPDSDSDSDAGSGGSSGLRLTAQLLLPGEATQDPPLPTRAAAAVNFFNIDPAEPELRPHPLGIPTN
Cytochrome P450 2E1, sequence (P05181 whole entry): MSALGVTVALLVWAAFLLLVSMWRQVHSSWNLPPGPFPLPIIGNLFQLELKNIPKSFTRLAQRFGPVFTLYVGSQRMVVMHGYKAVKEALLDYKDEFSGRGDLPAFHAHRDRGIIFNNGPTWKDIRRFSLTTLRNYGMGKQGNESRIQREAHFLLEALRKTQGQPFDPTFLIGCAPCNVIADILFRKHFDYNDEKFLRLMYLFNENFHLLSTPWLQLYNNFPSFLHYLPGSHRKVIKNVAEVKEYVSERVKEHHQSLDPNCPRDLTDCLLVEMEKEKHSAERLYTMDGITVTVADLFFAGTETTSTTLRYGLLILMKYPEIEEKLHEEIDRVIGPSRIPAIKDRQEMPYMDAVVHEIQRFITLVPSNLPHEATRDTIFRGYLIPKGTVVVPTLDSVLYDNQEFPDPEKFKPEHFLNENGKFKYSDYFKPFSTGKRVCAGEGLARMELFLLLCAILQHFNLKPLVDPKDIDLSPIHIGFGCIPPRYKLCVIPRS
Melanocortin receptor 4, sequence (P32245 whole entry): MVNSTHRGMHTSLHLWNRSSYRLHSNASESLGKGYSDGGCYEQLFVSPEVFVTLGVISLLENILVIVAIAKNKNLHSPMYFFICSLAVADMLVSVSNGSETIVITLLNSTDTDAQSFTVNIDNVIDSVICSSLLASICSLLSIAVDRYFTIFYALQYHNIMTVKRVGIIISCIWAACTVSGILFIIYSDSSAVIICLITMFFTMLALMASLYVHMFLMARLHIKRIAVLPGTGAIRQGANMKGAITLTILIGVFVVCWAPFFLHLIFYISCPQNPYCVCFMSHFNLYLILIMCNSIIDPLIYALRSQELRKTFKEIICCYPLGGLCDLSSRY
Tyrosine-protein kinase Fyn, sequence (P06241 whole entry): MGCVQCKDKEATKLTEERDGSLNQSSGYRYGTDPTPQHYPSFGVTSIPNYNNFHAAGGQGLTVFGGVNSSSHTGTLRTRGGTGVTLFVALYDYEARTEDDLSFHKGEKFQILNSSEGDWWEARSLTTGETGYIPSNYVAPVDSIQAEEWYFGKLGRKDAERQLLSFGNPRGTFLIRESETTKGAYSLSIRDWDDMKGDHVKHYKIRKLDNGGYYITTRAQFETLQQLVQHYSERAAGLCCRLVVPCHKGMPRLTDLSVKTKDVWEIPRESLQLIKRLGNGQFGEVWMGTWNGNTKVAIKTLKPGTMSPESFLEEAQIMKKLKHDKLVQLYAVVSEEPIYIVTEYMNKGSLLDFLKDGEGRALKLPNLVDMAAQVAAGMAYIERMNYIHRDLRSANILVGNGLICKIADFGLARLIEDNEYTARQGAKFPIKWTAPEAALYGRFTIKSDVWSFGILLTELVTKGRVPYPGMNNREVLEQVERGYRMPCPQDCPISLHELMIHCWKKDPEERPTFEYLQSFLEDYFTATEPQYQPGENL

Structure (SMILES) | IC50 [1] | Ki [1] | IC50 [2] | Ki [2] | IC50 [3] | IC50 [4] | IC50 ([5]; hela) | IC50 [6] | IC50 ([7]; insect cells) | IC50 ([8]; cho-k1) | IC50 [9] | Ki [9] | IC50 [10] | IC50 ([11]; sf9) | other results
CCC1(c2ccccc2)C(=O)NCNC1=O [PRIMIDONE] | Not Active | Not Active | Not Active | Not Active | Not Active | Not Active | Not Active | Not Active | Not Active | Not Active | Not Active | Not Active | Not Active | Not Active | –
CCOC(=O)c1ccc(N)cc1 [BENZOCAINE] | Not Active | Not Active | Not Active | Not Active | Not Active | Not Active | Not Active | Not Active | Not Active | Not Active | Not Active | Not Active | Not Active | Not Active | –
CC=CC(=O)N(CC)c1ccccc1C | Not Active | Not Active | Not Active | Not Active | Not Active | Not Active | Not Active | Not Active | Not Active | Not Active | Not Active | Not Active | Not Active | Not Active | –
Oc1c(Cl)cc(Cl)cc1Sc1cc(Cl)cc(Cl)c1O [BITHIONOL] | Not Active | Not Active | Not Active | Not Active | Not Active | Not Active | Not Active | Not Active | Not Active | – | Not Active | Not Active | Not Active | – | IC50 ([8]; read-out: IC50): 8.78 µM; Ki [8]: 4.6 µM; IC50 ([11]; read-out: IC50): 3.82 µM; Ki [11]: 1.43 µM
COC1=CC(=O)C[C@@H](C)[C@]12Oc1c(Cl)c(OC)cc(OC)c1C2=O [GRISEOFULVIN] | Not Active | Not Active | Not Active | Not Active | Not Active | Not Active | Not Active | Not Active | Not Active | Not Active | Not Active | Not Active | Not Active | Not Active | –
CN1C[C@H](C(=O)N[C@]2(C)O[C@@]3(O)[C@@H]4CCCN4C(=O)[C@H](Cc4ccccc4)N3C2=O)C=C2c3cccc4[nH]cc(c34)C[C@H]21 [ERGOTAMINE] | Not Active | Not Active | Not Active | Not Active | Not Active | Not Active | – | Not Active | – | – | Not Active | Not Active | Not Active | – | IC50 ([5]; read-out: IC50): 0.00204 µM; Ki ([5]; read-out: Ki): 0.000948 µM; IC50 ([7]; read-out: IC50): 3.16 µM; IC50 ([8]; read-out: IC50): 0.056 µM; Ki [8]: 0.029 µM; IC50 ([11]; read-out: IC50): 0.00212 µM; Ki [11]: 0.000796 µM
CCCc1cc(=O)[nH]c(=S)[nH]1 [PROPYLTHIOURACIL] | Not Active | Not Active | Not Active | Not Active | Not Active | Not Active | Not Active | Not Active | Not Active | Not Active | Not Active | Not Active | Not Active | Not Active | –
